For four compounds, mutagenic call results are on record in PubChem BioAssay AID1259407 (Chemical Carcinogenesis Research Information System (CCRIS), 2018).

Active and inactive are the calls of the source. How the calls were made is not given here.

The series deals with CCRIS mutagenicity, Ames/micronucleus/aberration tests. As to the kind of experiment: CCRIS mutagenicity studies.
Setting [1] is: Test System: AMES SALMONELLA TYPHIMURIUM, Strain/Indicator: TA98, Metabolic Activation: NONE, Method: PREINCUBATION
The mark [2] stands for this setting: Test System: AMES SALMONELLA TYPHIMURIUM, Strain/Indicator: TA100, Metabolic Activation: NONE, Method: PREINCUBATION

For `CN`, the mutagenic call is, setting by setting: (Test System: AMES SALMONELLA TYPHIMURIUM, Strain/Indicator: TA98, Metabolic Activation: NONE, Method: GAS EXPOSURE) “inactive; negative”; under setting [1], “inactive; negative”; (Test System: AMES SALMONELLA TYPHIMURIUM, Strain/Indicator: TA98, Metabolic Activation: RAT, LIVER, S-9, AROCLOR 1254 (5,15 OR 30%), Method: PREINCUBATION) “inactive; negative”; (Test System: AMES SALMONELLA TYPHIMURIUM, Strain/Indicator: TA98, Metabolic Activation: RAT, LIVER, S-9, SODIUM PHENOBARBITAL AND 5,6-BENZOFLAVONE, Method: GAS EXPOSURE) “inactive; negative”; (Test System: AMES SALMONELLA TYPHIMURIUM, Strain/Indicator: TA100, Metabolic Activation: NONE, Method: GAS EXPOSURE) “inactive; negative”; under setting [2], “inactive; negative”. The mutagenic call (Test System: AMES SALMONELLA TYPHIMURIUM, Strain/Indicator: TA100, Metabolic Activation: RAT, LIVER, S-9, AROCLOR 1254 (5,15 OR 30%), Method: PREINCUBATION) is “inactive; negative”; the mutagenic call (Test System: AMES SALMONELLA TYPHIMURIUM, Strain/Indicator: TA100, Metabolic Activation: RAT, LIVER, S-9, SODIUM PHENOBARBITAL AND 5,6-BENZOFLAVONE, Method: GAS EXPOSURE) was “inactive; negative”; the mutagenic call (Test System: AMES SALMONELLA TYPHIMURIUM, Strain/Indicator: TA104, Metabolic Activation: NONE, Method: PREINCUBATION) was “inactive; negative”; the mutagenic call (Test System: AMES SALMONELLA TYPHIMURIUM, Strain/Indicator: TA104, Metabolic Activation: RAT, LIVER, S-9, AROCLOR 1254 (5,15 OR 30%), Method: PREINCUBATION) is “inactive; negative”; the mutagenic call (Test System: AMES SALMONELLA TYPHIMURIUM, Strain/Indicator: TA1535, Metabolic Activation: NONE, Method: GAS EXPOSURE) was “inactive; negative”; the mutagenic call (Test System: AMES SALMONELLA TYPHIMURIUM, Strain/Indicator: TA1535, Metabolic Activation: RAT, LIVER, S-9, SODIUM PHENOBARBITAL AND 5,6-BENZOFLAVONE, Method: GAS EXPOSURE) is “inactive; negative”. The mutagenic call (Test System: AMES SALMONELLA TYPHIMURIUM, Strain/Indicator: TA1537, Metabolic Activation: NONE, Method: GAS EXPOSURE) was “inactive; negative”; the mutagenic call (Test System: AMES SALMONELLA TYPHIMURIUM, Strain/Indicator: TA1537, Metabolic Activation: RAT, LIVER, S-9, SODIUM PHENOBARBITAL AND 5,6-BENZOFLAVONE, Method: GAS EXPOSURE) is “inactive; negative”; the mutagenic call (Test System: E. COLI, Strain/Indicator: WP2UVRA, Metabolic Activation: NONE, Method: GAS EXPOSURE) is “inactive; negative”; the mutagenic call (Test System: E. COLI, Strain/Indicator: WP2UVRA, Metabolic Activation: RAT, LIVER, S-9, SODIUM PHENOBARBITAL AND 5,6-BENZOFLAVONE, Method: GAS EXPOSURE) is “inactive; negative”; the mutagenic call (Test System: MOUSE LYMPHOMA, Strain/Indicator: L5178Y (TK+/TK-), Metabolic Activation: NONE, Method: SUSPENSION/PLATE) is “active; positive”.

With `CC(=O)/C=C/c1ccco1`, the mutagenic call by setting is: (Test System: AMES SALMONELLA TYPHIMURIUM, Strain/Indicator: TA98, Metabolic Activation: HAMSTER, LIVER, S-9, AROCLOR 1254 (10%), Method: PREINCUBATION) “inactive; negative”; under setting [1], “inactive; negative”; (Test System: AMES SALMONELLA TYPHIMURIUM, Strain/Indicator: TA98, Metabolic Activation: RAT, LIVER, S-9, AROCLOR 1254 (10%), Method: PREINCUBATION) “inactive; negative”; (Test System: AMES SALMONELLA TYPHIMURIUM, Strain/Indicator: TA100, Metabolic Activation: HAMSTER, LIVER, S-9, AROCLOR 1254 (10%), Method: PREINCUBATION) “inactive; negative”; under setting [2], “inactive; negative”; (Test System: AMES SALMONELLA TYPHIMURIUM, Strain/Indicator: TA100, Metabolic Activation: RAT, LIVER, S-9, AROCLOR 1254 (10%), Method: PREINCUBATION) “inactive; negative”. Also, the mutagenic call is “inactive; negative” (Test System: AMES SALMONELLA TYPHIMURIUM, Strain/Indicator: TA1535, Metabolic Activation: HAMSTER, LIVER, S-9, AROCLOR 1254 (10%), Method: PREINCUBATION); “inactive; negative” (Test System: AMES SALMONELLA TYPHIMURIUM, Strain/Indicator: TA1535, Metabolic Activation: NONE, Method: PREINCUBATION); “inactive; negative” (Test System: AMES SALMONELLA TYPHIMURIUM, Strain/Indicator: TA1535, Metabolic Activation: RAT, LIVER, S-9, AROCLOR 1254 (10%), Method: PREINCUBATION); “inactive; negative” (Test System: AMES SALMONELLA TYPHIMURIUM, Strain/Indicator: TA1537, Metabolic Activation: HAMSTER, LIVER, S-9, AROCLOR 1254 (10%), Method: PREINCUBATION); “inactive; negative” (Test System: AMES SALMONELLA TYPHIMURIUM, Strain/Indicator: TA1537, Metabolic Activation: NONE, Method: PREINCUBATION); “inactive; negative” (Test System: AMES SALMONELLA TYPHIMURIUM, Strain/Indicator: TA1537, Metabolic Activation: RAT, LIVER, S-9, AROCLOR 1254 (10%), Method: PREINCUBATION).

With `CC(=O)N(O)c1ccc(-c2ccccc2)cc1`, the mutagenic call was “inactive; negative” (Test System: AMES SALMONELLA TYPHIMURIUM, Strain/Indicator: TA98(1,8-DNP6), Metabolic Activation: HUMAN, UROEPITHELIAL CELL, MICROSOMES, Method: PREINCUBATION); “inactive; negative” (Test System: AMES SALMONELLA TYPHIMURIUM, Strain/Indicator: TA98(1,8-DNP6), Metabolic Activation: NONE, Method: PREINCUBATION); “active; positive” (Test System: AMES SALMONELLA TYPHIMURIUM, Strain/Indicator: TA98(1,8-DNP6), Metabolic Activation: RAT, LIVER, S-9, AROCLOR, Method: PREINCUBATION); “active; positive” (Test System: AMES SALMONELLA TYPHIMURIUM, Strain/Indicator: TA98, Metabolic Activation: DOG, BLADDER, MICROSOMES, Method: PREINCUBATION); “active; positive” (Test System: AMES SALMONELLA TYPHIMURIUM, Strain/Indicator: TA98, Metabolic Activation: DOG, LIVER, MICROSOMES, Method: PREINCUBATION); “active; positive” (Test System: AMES SALMONELLA TYPHIMURIUM, Strain/Indicator: TA98, Metabolic Activation: HUMAN, UROEPITHELIAL CELL, CYTOSOL, Method: PREINCUBATION). In addition, the mutagenic call was “active; positive” (Test System: AMES SALMONELLA TYPHIMURIUM, Strain/Indicator: TA98, Metabolic Activation: HUMAN, UROEPITHELIAL CELL, MICROSOMES, Method: PREINCUBATION); “active; positive” (Test System: AMES SALMONELLA TYPHIMURIUM, Strain/Indicator: TA98, Metabolic Activation: HUMAN, UROEPITHELIAL CELL, S-9, Method: PREINCUBATION); “inactive; negative” under setting [1]; “inactive; negative” (Test System: AMES SALMONELLA TYPHIMURIUM, Strain/Indicator: TA98, Metabolic Activation: RAT, BLADDER, MICROSOMES, Method: PREINCUBATION); “active; positive” (Test System: AMES SALMONELLA TYPHIMURIUM, Strain/Indicator: TA98, Metabolic Activation: RAT, LIVER, CYTOSOL, Method: PREINCUBATION); “active; positive” (Test System: AMES SALMONELLA TYPHIMURIUM, Strain/Indicator: TA98, Metabolic Activation: RAT, LIVER, MICROSOMES, Method: PREINCUBATION). For the same compound, the mutagenic call by setting is: (Test System: AMES SALMONELLA TYPHIMURIUM, Strain/Indicator: TA98, Metabolic Activation: RAT, LIVER, S-9, AROCLOR, Method: PREINCUBATION) “active; positive”; (Test System: AMES SALMONELLA TYPHIMURIUM, Strain/Indicator: YG1024, Metabolic Activation: HUMAN, UROEPITHELIAL CELL, MICROSOMES, Method: PREINCUBATION) “active; positive”; (Test System: UDS HUMAN FIBROBLASTS, Strain/Indicator: THY INCORP (NON-S-PHASE), Metabolic Activation: NONE, Method: AUTORADIOGRAPHY) “active; positive”.

As to `Cc1ccc(N)cc1N=[N+]([O-])c1cc(N)ccc1C`, the mutagenic call was “inactive; negative” (Test System: AMES SALMONELLA TYPHIMURIUM, Strain/Indicator: TA98, Metabolic Activation: NONE, Method: SUSPENSION/PLATE); “inactive; negative” (Test System: AMES SALMONELLA TYPHIMURIUM, Strain/Indicator: TA98, Metabolic Activation: RAT, LIVER, S-9, PHENOBARBITAL AND 5,6-BENZOFLAVONE, Method: SUSPENSION/PLATE); “inactive; negative” (Test System: AMES SALMONELLA TYPHIMURIUM, Strain/Indicator: TA100, Metabolic Activation: NONE, Method: SUSPENSION/PLATE); “active; positive” (Test System: AMES SALMONELLA TYPHIMURIUM, Strain/Indicator: TA100, Metabolic Activation: RAT, LIVER, S-9, PHENOBARBITAL AND 5,6-BENZOFLAVONE, Method: SUSPENSION/PLATE).
